Source: US20160299147A1, “SCREENING, DIAGNOSIS, PROGNOSTICATION AND TREATMENT OF OVARIAN CANCER” (AFG TECHNOLOGIES S.À.R.L., priority 2013, published 2016)

Columns and labels:
Format in all cases: cell-based
Caov-3 cells [1] = assay: XTT viability assay in Caov-3 cells
Experimental: Caov-3 or Ovcar-3 cells were plated at a density of 1×10^4 cells per well into a 96-well tissue culture plate. The cell number was determined using the Countess™ automated cell counter (Life Technologies). Where indicated paclitaxel and IGF-1 were added. The final volume of the tissue culture medium was 0.1 ml. Prior to the experiment for each 96 well plate, 5 ml XTT solution and 0.1 ml activation reagent (New England Biolabs; Cat. No. 9095S) were mixed. 50 μl of the activated solution was added to each well and incubated at 37° C. for 4 hrs. The plates were shaken gently to evenly distribute the dye in the wells. After the 4 hrs incubation the absorbance of the samples was measured using a Spectramax M5e plate reader (Molecular Devices; Mod. No. M5e) at a wavelength of 450 nm.

Ovcar-3 cells [2] = assay: XTT viability assay in Ovcar-3 cells; conditions: 25 nM paclitaxel for 24 hrs (5x the concentration used in Caov-3)
Experimental: Caov-3 cells (ATCC® HTB-75™) were cultured in DMEM (Life Technologies; Cat. No. 31966-021) supplemented with 10% FBS (Life Technologies; Lot #41Q822OK) and GlutaMAX™ (Life Technologies; Cat. No. 35050-038). Ovcar-3 cells (ATCC® HTB-161™) were cultured in RPMI 1640 (LGC Standards; Cat. No. 30-2001) supplemented with 20% FBS (Life Technologies) and 10 μg/ml bovine insulin (Sigma Aldrich, Cat. No. 10516). Cells were cultured at 37° C. with 5% CO2 and ≧95% humidity. Cells were harvested following incubation with TrypLE™ Express (Life Technologies; Cat. No. 126005-010). Cell density and viability were determined by trypan blue exclusion using a Countess® Automated Cell Counter (Life Technologies; Mod No. C10281). […] Where indicated, Caov-3 cells were treated with 100 ng/ml IGFR blocking antibody (Millipore; Lot #30080) for 24 hrs, 100 ng/ml IGF-1 (Life Technologies; Lot #73159414A) for 48 hrs or 5 nM paclitaxel (Taxol® Sigma Aldrich; Lot #091M1781V) for 24 hrs. Ovcar-3 cells, where indicated, were treated with 100 ng/ml IGF-1 for 48 hrs or 25 nM paclitaxel for 24 hrs. […] The cell number was determined using the Countess™ automated cell counter (Life Technologies). […] After the 4 hrs incubation the absorbance of the samples was measured using a Spectramax M5e plate reader (Molecular Devices; Mod. No. M5e) at a wavelength of 450 nm.

Caov-3 cells [3] = assay: Apoptotic DNA ladder detection in Caov-3 cells; conditions: 5 nM paclitaxel for 24 hrs
Experimental: Caov-3 cells (ATCC® HTB-75TM) were cultured in DMEM (Life Technologies; Cat. No. 31966-021) supplemented with 10% FBS (Life Technologies; Lot #41Q822OK) and GlutaMAXTM (Life Technologies; Cat. No. 35050-038). […] Cells were cultured at 37° C. with 5% CO2 and ≧95% humidity. Cells were harvested following incubation with TrypLETM Express (Life Technologies; Cat. No. 126005-010). Cell density and viability were determined by trypan blue exclusion using a Countess® Automated Cell Counter (Life Technologies; Mod No. C10281). […] Where indicated, Caov-3 cells were treated with 100 ng/ml IGFR blocking antibody (Millipore; Lot #30080) for 24 hrs, 100 ng/ml IGF-1 (Life Technologies; Lot #73159414A) for 48 hrs or 5 nM paclitaxel (Taxol® Sigma Aldrich; Lot #091M1781V) for 24 hrs. Ovcar-3 cells, where indicated, were treated with 100 ng/ml IGF-1 for 48 hrs or 25 nM paclitaxel for 24 hrs. Caov-3 or Ovcar-3 cells were plated into [MUT]^2 culture flasks in a volume of 25 ml. The cells were seeded at 1×10^6 cells per flask as determined using the CountessTM automated cell counter (Life Technologies). Where indicated paclitaxel, IGF-1, or IGF-1+paclitaxel were added. […] DNA was resuspended in 30 μl nuclease-free water (Ambion; Cat. No. AM9937) and was quantified using a NanoVue Plus Spectrophotometer (GE Healthcare). […]

Ovcar-3 cells [4] = assay: Mitotic phase distribution analysis (H3S10ph immunostaining) in Ovcar-3 cells; conditions: 100 ng/ml IGF-1 for 48 hrs, vs untreated, p=0.055
Ovcar-3 cells [5] = assay: Invasion assay (Matrigel Boyden chamber) in Ovcar-3 cells; conditions: 100 ng/ml IGF-1, vs untreated, n=2
Experimental: FBS (10%) mediated cell migration through an extracellular matrix was measured by Boyden chamber assay [(BD Biocoat™ Matrigel invasion chamber) BD Biosciences; Cat. No. 354480)] following the manufacturer's instructions. Briefly, Caov-3 cells were transfected with PAPPA siRNA or control siRNA (negative control) as described above. Caov-3 cells were treated with IGFR blocking antibody or untreated as described previously. Ovcar-3 cells were treated with IGF-1 or untreated as described previously. Prior to transfections or treatments the cells were serum starved for 24 hrs. Caov-3 cells were collected in DMEM medium containing 5% BSA, counted and 0.5×10^5 cells were added to each invasion assay chamber. Ovcar-3 cells were collected in RPMI medium containing 5% BSA, counted and 2×10^5 cells were added to each invasion assay chamber. After incubation for 48 hrs the invasion chamber inserts were washed with PBS, fixed in 4% formaldehyde for 5 min, stained with 0.01% crystal violet or haematoxylin and cells from random areas on the filters were counted.

Compound | cell viability (XTT assay) (Caov-3 cells [1]; 5 nM paclitaxel for 24 hrs) | response to paclitaxel treatment (morphology, XTT viability, apoptosis) (Ovcar-3 cells [2]) | apoptosis (DNA apoptosis kit) (Caov-3 cells [3]) | mitotic delay (mitotic cells in prophase/prometaphase) (Ovcar-3 cells [4]) | cell viability (XTT assay) (Caov-3 cells [1]; 100 ng/ml IGF-1 for 48 hrs, added alone) | invasiveness (number of invading cells, Boyden chamber assay) (Ovcar-3 cells [5])
CC(=O)O[C@H]1C(=O)[C@@]2(C)[C@H]([C@H](OC(=O)c3ccccc3)[C@]3(O)C[C@H](OC(=O)[C@H](O)[C@@H](NC(=O)c4ccccc4)c4ccccc4)C(C)=C1C3(C)C)[C@]1(OC(C)=O)CO[C@@H]1C[C@@H]2O [paclitaxel] | decreased | not responding | induction of apoptosis | – | – | –
IGF-1: insulin-like growth factor-1, recombinant, exogenously added (Life Technologies); IGF-1 receptor agonist | – | – | – | decrease | no effect | reduced
